Data taken from patent US12569536B2, “Macrocyclic peptides for targeted inhibition of autophagy” (Board of Regents, The University of Texas System, priority 2019, dated 2026).
Entries after “also recorded” stand apart in the source; their conditions may differ. Read-outs that look alike come from different tables or passages of the source. Numbered stars: 1 amine (or outer) side, 2 acyl side, 3 side chain; on linkers, the order of the positions; unused ones are H or OH. Bridge positions count the residues as written; N and C are the ends. Square brackets hold non-standard residues; d marks the D form. Primed or numbered codes have the meaning given here. Ends that are not written are not given here. Peptide text beside a SMILES is read from it. DSG″ = disuccinimidyl glutarate, a bis-NHS cross-linker that leaves a glutaryl bridge between two amines; Glutaryl = O=C(CCCC(=O)[*:2])[*:1]; NMeA = CN[C@@H](C)C(=O)O

Experiments:
[1] = tested on: HeLa cells stably transfected with a GFP-LC3 fusion; format: cell-based; details: HeLa starved in Hank's Balanced Salt Solution
Description: FIG. 11: Confocal microscopy of SUPR 4B1W-Rox in autophagic HeLa cells. A line of HeLa cells was stably transfected with a GFP-LC3 fusion. When starved for 2+ hours in Hank's Balanced Salt Solution, these cells become autophagic and GFP signal becomes punctate as GFP-LC3 fusions are embedded in the autophagosome.

GABARAP2 = GABARAP2 (Homo sapiens, UniProt P60520); format: binding; details: peptide immobilized on solid phase
Sequence of GABARAP2 (P60520 1-116 limits assumed): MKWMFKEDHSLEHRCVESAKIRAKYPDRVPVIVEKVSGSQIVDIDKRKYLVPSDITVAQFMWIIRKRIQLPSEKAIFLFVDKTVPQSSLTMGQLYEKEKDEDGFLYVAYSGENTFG

SKOv3-ARHI cells = assay: Western blotting of p62 and LC3I/LC3II in DIRAS3-induced cells; format: cell-based; details: peptide-treated, 72 h
Experimental: FIGS. 7A-B: SUPR4B in the DIRAS3 autophagy model.
FIGS. 8A-F: SUPR4B in the DIRAS3 autophagy model. […] Induction was performed using 1 g/mL DOX.

GABARAP1 = format: binding; details: peptide immobilized on solid phase
LC3A = target: T1, LC3A (Homo sapiens, UniProt Q9H492); format: binding; details: peptide immobilized on solid phase
T1 construct: made in house

[2] = tested on: Atg4B:LC3-AMC interaction; assay: Atg4B cleavage of LC3-AMC (fluorescence); format: biochemical; details: LC3-AMC 120 nM, Atg4B 220 pM, increasing peptide concentrations
Description: FIG. 9A—In naturally occurring LIMs, the most common amino acid in the leading position of the motif is tryptophan. […] The reason for this may be that there exists only one codon for tryptophan, making it much less likely to appear in a selected peptide than another W-site recognizing amino acid. Modifying the lead position of SUPR 4B (SEQ ID NO: 1) from phenylalanine to tryptophan was hypothesized to produce a peptide that obtains improved binding affinity towards LC3 by more closely mimicking a naturally occurring LIM. Tryptophan may also confer increased hydrophobicity, which may enhance cell uptake. […] Atg19 is provided in SEQ ID NO: 10, Atg32 is provided in SEQ ID NO: 11, Atg3 is provided in SEQ ID NO: 12, Atg4B is provided in SEQ ID NO: 13, p62 is provided in SEQ ID NO: 14, NBR1 is provided in SEQ ID NO: 15. […] FIG. 9D—LC3-AMC (120 nM) was incubated with Atg4B (220 pM) in the presence of SUPR4B1W or a non-functional scrambled variant at the concentrations shown. Cleavage of LC3-AMC was measured by increased fluorescence (λEx=380 nm, […]).
Cleavage of LC3-AMC was measured by increased fluorescence.

LC3 = LC3 (Homo sapiens, UniProt Q9H492); assay: Surface plasmon resonance binding to LC3
SKOv3 cells = assay: MTT viability assay in DIRAS3 autophagy model; details: 50 μM peptide; for cell viability (MTT), DIRAS3-induced (autophagic) cells: SKOv3, Dox-induced, 72 hours
Experimental: (§1) FIGS. 6A-D: SUPR4B in the DIRAS3 autophagy model. FIGS. 6A&B—MTT viability assays with 50 M linear and cyclic SUPR 4B on non-DIRAS3 induced OVCAR8 (FIG. 6B) and SKOv3 (FIG. 6A) cells. […] Induction was performed using 1 g/mL DOX.
(§2) FIGS. 8A-F: SUPR4B in the DIRAS3 autophagy model. […] Inhibition of autophagy by the present compound were hypothesized to restore cellular growth. […] FIGS. 8A&B—MTT viability assays with 50 M linear and cyclic SUPR on non-DIRAS3 induced OVCAR8 (FIG. 8A) and SKOv3 (FIG. 8B) cells. […] FIGS. 8C&D—MTT viability assays on the effect of 50 M linear and cyclic LC3 SUPR4B on DIRAS3-induced OVCAR8 (FIG. 8C) and SKOv3 (FIG. 8D) cells. Induction was performed using 1 g/mL DOX.
(§3) After selection, the library was sequenced and lead compounds were subjected to thermodynamic and cellular assays to develop a structure-activity relationship modeling the interaction between the SUPR peptide and the target.

Hey cell line [3] = assay: Western blots of LC3-I/LC3-II and p62, cisplatin-resistant ovarian cancer cells; format: cell-based; details: 48 hr
Description: (§4) FIGS. 12A-D: SUPR4B1W sensitizes ovarian cancer cells to cisplatin.

OVCAR8 cell line [4] = assay: as above; format: cell-based; details: 48 hr
Description: as §4

Atg8 = Atg8 (Saccharomyces cerevisiae, UniProt P38182); format: binding, yeast; details: peptide immobilized on solid phase
Sequence of Atg8 (P38182 1-116): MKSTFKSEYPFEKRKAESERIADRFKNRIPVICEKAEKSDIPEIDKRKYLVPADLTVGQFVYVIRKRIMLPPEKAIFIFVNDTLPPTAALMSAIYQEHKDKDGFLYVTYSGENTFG

ubiquitin = target: T2, ubiquitin (Homo sapiens, UniProt P62987); format: binding; details: peptide immobilized on solid phase
T2 construct: made in house

LC3B = LC3B (Homo sapiens, UniProt Q9GZQ8); format: binding; details: peptide immobilized on solid phase
Hey cell line [5] = assay: MTT viability assay, cisplatin-resistant ovarian cancer cells; format: cell-based; details: cisplatin 10 μM + peptide, 48 hr
Description: as §4

OVCAR8 cell line [6] = assay: as above; format: cell-based; details: OVCAR8, cisplatin 10 μM + peptide, 48 hr
Description: as §4

[7] = tested on: OVCAR8 orthotopic ovarian tumors; assay: Orthotopic ovarian tumor model with carboplatin; format: in vivo
Experimental: FIG. 13: SUPR4B1W sensitizes orthotopic ovarian tumors to carboplatin treatment. Mice were injected IP with 2 million OVCAR8 cells and treated three times per week for four weeks with vehicle control, SUPR peptide (10 mg/kg), carboplatin (25 mg/kg), or combination of SUPR peptide and carboplatin. At the end of four weeks, mice were sacrificed and tumors were dissected. […] For each vertical groups of data points, the top group represents Mouse Weight and the bottom group represents Tumor Weight.
In animal model experiments, mice were implanted with a cisplatin-resistant ovarian cancer cell line (OVCAR8) and treated with carboplatin, SUPR4B1W peptide, or carboplatin+SUPR4B1W peptide for 4 weeks. At the conclusion of the study, the mice were sacrificed and the mass of the intraperitoneal tumors measured.

LC3C = target: T3, LC3C (Homo sapiens, UniProt Q9BXW4); format: binding; details: peptide immobilized on solid phase
T3 construct: made in house
T3 sequence (Q9BXW4 1-126 limits assumed): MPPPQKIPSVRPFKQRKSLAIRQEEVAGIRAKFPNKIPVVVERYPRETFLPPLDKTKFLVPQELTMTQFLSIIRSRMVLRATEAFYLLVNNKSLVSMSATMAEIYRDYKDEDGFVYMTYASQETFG

OVCAR8 cells = details: 50 μM peptide; for cell viability (MTT), DIRAS3-induced (autophagic) cells: OVCAR8, Dox-induced, 72 hours
Experimental: as §1, §2, §3

SUPR 4B1W-ROX: SUPR 4B1W conjugated to the fluorophore ROX (MWPHRVTA[NMeA]K; bridge N-10 via DSG″; also: conjugated to fluorophore ROX, site not given here)
co-localization with GFP-LC3 [1]: Significant co-localization of ROX and GFP signal

CSCC[C@@H]1NC(=O)CCCC(=O)NCCCC[C@@H](C(=O)O)NC(=O)[C@H](C)N(C)C(=O)[C@H](C)NC(=O)[C@H]([C@@H](C)O)NC(=O)[C@H](C(C)C)NC(=O)[C@H](CCCNC(=N)N)NC(=O)[C@H](Cc2c[nH]cn2)NC(=O)[C@@H]2CCCN2C(=O)[C@H](Cc2c[nH]c3ccccc23)NC1=O [SUPR 4B1W] (MWPHRVTA[NMeA]K-OH; linker N-10 via Glutaryl)
binding to GABARAP2 (GABARAP2): moderate off-target binding
LC3I/LC3II ratio (SKOv3-ARHI cells): decreased LC3I/LC3II ratio
p62 protein levels (SKOv3-ARHI cells): accumulation of p62
binding to GABARAP1 (GABARAP1): moderate off-target binding
binding to LC3A (LC3A): bound tightly
Cleavage of LC3-AMC by Atg4B (fluorescent signal) [2]: significantly decreased fluorescent signal
improvement of apparent dissociation constant relative to SUPR4B (LC3): ~10 fold
cell viability (MTT), DIRAS3-induced (autophagic) cells (SKOv3 cells): enhanced viability rescue phenotype
cell viability (MTT), DIRAS3-induced (autophagic) cells (SKOv3 cells; listed as SUPR4B1W): almost completely restores cell viability
cell viability (MTT), non-DIRAS3 induced cells (SKOv3 cells; SKOv3, no Dox (non-autophagic), up to 72 hours): no change in cell viability
p62 accumulation in combination with cisplatin (Hey cell line [3]; cisplatin 10 μM + peptide 50 µM): triggered accumulation of p62
LC3-I/LC3-II ratios in combination with cisplatin (Hey cell line [3]; cisplatin 10 μM + peptide): dramatically perturbed LC3-I/LC3-II ratios
p62 accumulation in combination with cisplatin (OVCAR8 cell line [4]; OVCAR8, cisplatin 10 μM + peptide 50 µM): triggered accumulation of p62
LC3-I/LC3-II ratios in combination with cisplatin (OVCAR8 cell line [4]; OVCAR8, cisplatin 10 μM + peptide): dramatically perturbed LC3-I/LC3-II ratios
binding to yeast LC3 ortholog Atg8 (Atg8): moderate off-target binding
binding to ubiquitin (ubiquitin): Almost no binding
binding to LC3B (LC3B): bound tightly
cell viability (MTT) in combination with cisplatin (Hey cell line [5]): re-sensitized the resistant cell lines to cisplatin
cell viability (MTT) in combination with cisplatin (OVCAR8 cell line [6]): re-sensitized the resistant cell lines to cisplatin
number of mice with no detectable tumors, peptide combined with carboplatin ([7]; IP OVCAR8, four weeks, peptide 10 mg/kg + carboplatin 25 mg/kg): 6 mice
final tumor mass, agent administered alone ([7]; mice, IP OVCAR8, three times per week for four weeks, SUPR peptide 10 mg/kg or carboplatin 25 mg/kg): no change in tumor volume
final tumor mass, peptide combined with carboplatin ([7]; mice, IP OVCAR8, three times per week for four weeks, peptide 10 mg/kg + carboplatin 25 mg/kg): almost completely tumor-free; also recorded: significantly reduced tumor mass
binding to LC3C (LC3C): Almost no binding
cell viability (MTT), DIRAS3-induced (autophagic) cells (OVCAR8 cells): enhanced viability rescue phenotype
cell viability (MTT), DIRAS3-induced (autophagic) cells (OVCAR8 cells; listed as SUPR4B1W): almost completely restores cell viability
cell viability (MTT), non-DIRAS3 induced cells (OVCAR8 cells; OVCAR8, no Dox (non-autophagic), up to 72 hours): no change in cell viability
